Data taken from PubChem BioAssay AID1919008 (Molecular Pharmacology Branch, DTP, NCI, 2023).

System: DMS-114 complex spheroids with HUVEC/MSC, growth % test/control
Test: Anticancer human tumor DMS-114 cell line growth inhibition [AhR];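 note: spheroids exposed to agents for 7 days before readout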;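 for viability, T/C: 100% = DMSO vehicle control wells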
Settings: for IC50: curve of first compound; for viability, T/C: stronger effect = lower value
In short: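 Agents were dosed in half-log steps down from roughly clinical Cmax, or from 10 microM where Cmax was unknown, alone and with AhR antagonists. Read-out: percent test/control growth of tumor spheroids containing HUVEC and MSC stromal cells.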

[1] = second compound 0.1 µM, first compound 0.0316 µM
[2] = second compound 0.1 µM, first compound 0.1 µM
[3] = second compound 0.1 µM, first compound 0.316 µM
[4] = second compound 0.1 µM, first compound 1 µM
[5] = second compound 0.316 µM, first compound 0.0316 µM
[6] = second compound 0.316 µM, first compound 0.1 µM
[7] = second compound 0.316 µM, first compound 0.316 µM
[8] = second compound 0.316 µM, first compound 1 µM
[9] = second compound 1 µM, first compound 0.0316 µM
[10] = second compound 1 µM, first compound 0.1 µM
[11] = second compound 1 µM, first compound 0.316 µM
[12] = second compound 1 µM, first compound 1 µM
[13] = second compound 3.16 µM, first compound 0.0316 µM
[14] = second compound 3.16 µM, first compound 0.1 µM
[15] = second compound 3.16 µM, first compound 0.316 µM
[16] = second compound 3.16 µM, first compound 1 µM
[17] = second compound 10 µM, first compound 0.0316 µM
[18] = second compound 10 µM, first compound 0.1 µM
[19] = second compound 10 µM, first compound 0.316 µM
[20] = second compound 10 µM, first compound 1 µM

Compound | IC50 (second compound 0.1 µM) [µM] | IC50 (second compound 0.316 µM) [µM] | IC50 (second compound 1 µM) [µM] | IC50 (second compound 3.16 µM) [µM] | IC50 (second compound 10 µM) [µM] | viability, T/C [1] [%] | viability, T/C [2] [%] | viability, T/C [3] [%] | viability, T/C [4] [%] | viability, T/C [5] [%] | viability, T/C [6] [%] | viability, T/C [7] [%] | viability, T/C [8] [%] | viability, T/C [9] [%] | viability, T/C [10] [%] | viability, T/C [11] [%] | viability, T/C [12] [%] | viability, T/C [13] [%] | viability, T/C [14] [%] | viability, T/C [15] [%] | further results
Nc1ncn(C2CC(O)C(CO)O2)c(=O)n1 (stereo not given) + Cc1ccccc1N=Nc1ccc(NC(=O)c2ccnn2C)c(C)c1 | > 1 | > 1 | > 1 | > 1 | > 1 | 103 | 117 | 104 | 105 | 104 | 113 | 96.3 | 104 | 108 | 101 | 95.4 | 106 | 95.7 | 99.8 | 99.7 | viability, T/C (second compound 0.1 µM, first compound 0.00316 µM): 111%; viability, T/C (second compound 0.1 µM, first compound 0.01 µM): 105%; viability, T/C (second compound 0.316 µM, first compound 0.00316 µM): 103%; viability, T/C (second compound 0.316 µM, first compound 0.01 µM): 95.4%; viability, T/C (second compound 1 µM, first compound 0.00316 µM): 109%; viability, T/C (second compound 1 µM, first compound 0.01 µM): 104%; viability, T/C (second compound 3.16 µM, first compound 0.00316 µM): 115%; viability, T/C (second compound 3.16 µM, first compound 0.01 µM): 96.2%; viability, T/C [16]: 97.7%; viability, T/C (second compound 10 µM, first compound 0.00316 µM): 98.8%; viability, T/C (second compound 10 µM, first compound 0.01 µM): 98.1%; viability, T/C [17]: 92.1%; viability, T/C [18]: 91%; viability, T/C [19]: 105%; viability, T/C [20]: 87.6%
O=C(c1cc(Cc2n[nH]c(=O)c3ccccc23)ccc1F)N1CCN(C(=O)C2CC2)CC1 + CC(CO)NC(=O)c1cc(-c2ccc(Cl)cc2)nn(-c2cnn(C)c2)c1=O | > 10 | > 10 | > 10 | > 10 | > 10 | 119 | 95.6 | 89.2 | 106 | 96.7 | 96.1 | 95.5 | 94.5 | 108 | 88.9 | 118 | 107 | 99.4 | 105 | 95.7 | viability, T/C (second compound 0.1 µM, first compound 3.16 µM): 94.3%; viability, T/C (second compound 0.1 µM, first compound 10 µM): 63.5%; viability, T/C (second compound 0.316 µM, first compound 3.16 µM): 90.3%; viability, T/C (second compound 0.316 µM, first compound 10 µM): 68.1%; viability, T/C (second compound 1 µM, first compound 3.16 µM): 102%; viability, T/C (second compound 1 µM, first compound 10 µM): 61.7%; viability, T/C [16]: 93.3%; viability, T/C (second compound 3.16 µM, first compound 3.16 µM): 85.6%; viability, T/C (second compound 3.16 µM, first compound 10 µM): 67.3%; viability, T/C [17]: 94%; viability, T/C [18]: 95.9%; viability, T/C [19]: 87.8%; viability, T/C [20]: 86%; viability, T/C (second compound 10 µM, first compound 3.16 µM): 86.2%; viability, T/C (second compound 10 µM, first compound 10 µM): 53.1%
